Consider one compound from patent publication US20110151089A1, “COMPOSITION CONTAINING MAGNESIUM GLUTAMATE WHICH CAN ENHANCE THE SALTINESS OF FOODS AND DRINKS” (priority 2008, published 2011).

The experiment can be described thus: Sensory evaluation test of miso sample solutions without broth, experts' panel of six adult persons (Example 2). Also on record: species or system human. The settings on record: converted sodium chloride concentration about 0.625%, scale with 7 gradations, from 0 to 7. An excerpt: A scale with 7 gradations, from 0 to 7, was used to evaluate the “strength of saltiness” and “overall strength of miso soup flavor”.

On to `N[C@@H](CCC(=O)[O-])C(=O)[O-].[Mg+2]` [MDG, magnesium glutamate], for which the Strength of saltiness result is on record as “improved”.
